According to US20260224577A1, “METHODS OF TREATING HEART FAILURE WITH VIBEGRON” (SUMITOMO PHARMA CO., LTD., priority 2021, published 2026):

Test system: mice with induced myocardial infarction
Test: Post-MI chronic heart failure in mice, echocardiography
Assay type: in vivo
Excerpt: The purpose of this experiment is to study the effect of vibegron on structural remodeling (e.g., hypertrophy and/or fibrosis) and functional remodeling (e.g, ventricular function) in mice with chronic HF after a myocardial infarction (MI). The specific aims of these studies will be to determine the dose response treatment effects on cardiac remodeling by measuring parameters of cardiac structure and function using non-invasive, invasive, morphological, and histological assessments of mice after MI.
Myocardial infarction in the mouse is a commonly used experimental model for chronic ischemic heart failure. Due to complete ligation of the left anterior descending coronary artery, there is a large left ventricular infarct that produces adverse LV remodeling and significant dysfunction within 2 weeks post-MI. There also is significant fibrosis in this model and it is robust and reproducible with low mortality due to the surgical procedure. This model has been used for over 2 decades (see, e.g., Gao, E. et al., Circulation Research, 2010; 107: 1445-1453) and has been used to test potential novel HF therapeutics (Schumacher, S. et al. Science Translational Medicine, 2015; 7: 277).
Myocardial infarction was induced in 10-12 week C57B/6 wild-type mice and after 2 weeks echo cardiograms were used to assess the MI severity in each mouse. Mice were randomized for treatment based on similarity and severity of the induced infarct. The mice were started with either vibegron or vehicle (1-3 doses) administered by continuous infusion using 2 week minipumps (Azlet Corp.) that were filled with the appropriate dose and implanted subcutaneously on the back of each animal in the region of the scapula. The minipumps were replaced with new minipumps in the same location at the 2 week time point and dosed for 4 weeks in total. Cardiac function was assessed by echocardiography (Echo) at 0, 2, 4, and 6 weeks. Some mice were subjected to terminal catheterization to measure hemodynamic pressures and adrenergic responsiveness.
Sham surgery groups treated with vehicle and highest dose of vibegron were included as controls. One group of post-MI mice treated with vehicle was also included in the study as a control. Two groupings of the 6 conditions were tested to allow for multiple replicates. There were 7 to 8 mice per condition in each group. The 2 groups studied were staggered by 3-4 weeks.
At this point, 6 experimental conditions (A-F below)×2 groups (staggered for reproducibility) were tested. Vibegron was provided in a form dissolved and delivered via an osmotic minipump placed under the skin of the mouse. The vehicle was used for negative control animals. Three (3) doses of vibegron (low, medium and high) were tested.
• A. Sham—vehicle • B. Sham—vibegron (high dose) • C. MI—vehicle • D. MI—vibegron—low dose • E. MI—vibegron—medium dose • F. MI—vibegron—high dose Group 2 (7 or 8 Mice Per Group) Repeated 3-4 Weeks after Group 1 • A. Sham—vehicle • B. Sham—vibegron (high dose) • C. MI—vehicle • D. MI—vibegron—low dose • E. MI—vibegron—medium dose • F. MI—vibegron—high dose
• 1. Day 0 (after 1-2 weeks acclimation)—pre-surgery Echo • 2. Perform LAD Ligation (MI) or Sham procedure • 3. Day 14—Echo and randomly assign groups • 4. Day 14—begin administration of vehicle and drug for 4 weeks • 5. Day 28—Echo (operator blinded to groups)—change pumps for another 2 week dosing • 6. Day 42—Echo (operator blinded to groups) • 7. Day 42—Some were used for hemodynamics and ISO dose response and all animals sacrificed. Some were used for histology and some for RNA/Protein analysis. Blood was also collected at the time of sacrifice to determine serum concentrations.
Surgical Methods: As described in Gao, E. et al., Circulation Research, 2010; 107: 1445-1453 and Schumacher, S. et al. Science Translational Medicine, 2015; 7: 277, mice were anesthetized and complete ligation of the LAD was performed through a partial thoracotomy.

[1] = MI mice, high dose (10 mg/kg), Baseline (pre-surgery)
[2] = MI mice, high dose (10 mg/kg), Week 2 (before start of dosing)
[3] = MI mice, high dose (10 mg/kg), Week 4 (2 weeks after dosing)
[4] = MI mice, high dose (10 mg/kg), Week 6 (4 weeks of treatment)
[5] = MI mice, low dose (1 mg/kg), Baseline (pre-surgery)
[6] = MI mice, low dose (1 mg/kg), Week 2 (before start of dosing)
[7] = MI mice, low dose (1 mg/kg), Week 4 (2 weeks after dosing)
[8] = MI mice, low dose (1 mg/kg), Week 6 (4 weeks of treatment)
[9] = MI mice, medium dose (3 mg/kg), Baseline (pre-surgery)
[10] = MI mice, medium dose (3 mg/kg), Week 2 (before start of dosing)
[11] = MI mice, medium dose (3 mg/kg), Week 4 (2 weeks after dosing)
[12] = MI mice, medium dose (3 mg/kg), Week 6 (4 weeks of treatment)
[13] = sham mice, high dose (10 mg/kg), Baseline (pre-surgery)
[14] = sham mice, high dose (10 mg/kg), Week 2 (before start of dosing)
[15] = sham mice, high dose (10 mg/kg), Week 4 (2 weeks after dosing)
[16] = sham mice, high dose (10 mg/kg), Week 6 (4 weeks of treatment)

O=C(Nc1ccc(C[C@@H]2CC[C@H]([C@H](O)c3ccccc3)N2)cc1)[C@@H]1CCc2nccc(=O)n21 [Vibegron, (6S)—N-[4-[[(2S,5R)-5-[(R)-hydroxy(phenyl)methyl]pyrrolidin-2-yl]methyl]phenyl]-4-oxo-7,8-dihydro-6H-pyrrolo[1,2-a]pyrimidine-6-carboxamide]
Average % Ejection Fraction [1]: 62.06%
Average % Fractional Shortening [1]: 32.99%
Cardiac Output [1]: 20.56 mL/min
Stroke Volume [1]: 43.30 µL
Average % Ejection Fraction [2]: 38.39%
Average % Fractional Shortening [2]: 18.91%
Cardiac Output [2]: 18.93 mL/min
Stroke Volume [2]: 40.79 µL
Average % Ejection Fraction [3]: 42.59%
Average % Fractional Shortening [3]: 21.61%
Cardiac Output [3]: 23.29 mL/min
Cardiac Output % Improvement Relative to Vehicle [3]: 37.40%
Stroke Volume [3]: 46.83 µL
Stroke Volume % Improvement Relative to Vehicle [3]: 40.84%
Average % Ejection Fraction [4]: 42.68%
Average % Fractional Shortening [4]: 21.76%
Cardiac Output [4]: 25.09 mL/min
Cardiac Output % Improvement Relative to Vehicle [4]: 61.35%
Stroke Volume [4]: 47.22 µL
Stroke Volume % Improvement Relative to Vehicle [4]: 57.87%
Average % Ejection Fraction [5]: 59.50%
Average % Fractional Shortening [5]: 31.22%
Cardiac Output [5]: 20.00 mL/min
Stroke Volume [5]: 42.74 µL
Average % Ejection Fraction [6]: 37.52%
Average % Fractional Shortening [6]: 18.44%
Cardiac Output [6]: 18.06 mL/min
Stroke Volume [6]: 39.30 µL
Average % Ejection Fraction [7]: 29.77%
Average % Fractional Shortening [7]: 14.29%
Cardiac Output [7]: 15.45 mL/min
Stroke Volume [7]: 32.76 µL
Average % Ejection Fraction [8]: 31.64%
Average % Fractional Shortening [8]: 15.21%
Cardiac Output [8]: 19.19 mL/min
Cardiac Output % Improvement Relative to Vehicle [8]: 23.40%
Stroke Volume [8]: 37.54 µL
Stroke Volume % Improvement Relative to Vehicle [8]: 25.51%
Average % Ejection Fraction [9]: 58.11%
Average % Fractional Shortening [9]: 30.07%
Cardiac Output [9]: 21.05 mL/min
Stroke Volume [9]: 44.72 µL
Average % Ejection Fraction [10]: 37.18%
Average % Fractional Shortening [10]: 18.14%
Cardiac Output [10]: 18.94 mL/min
Stroke Volume [10]: 40.37 µL
Average % Ejection Fraction [11]: 35.95%
Average % Fractional Shortening [11]: 17.57%
Cardiac Output [11]: 19.51 mL/min
Cardiac Output % Improvement Relative to Vehicle [11]: 15.10%
Stroke Volume [11]: 39.00 µL
Stroke Volume % Improvement Relative to Vehicle [11]: 17.29%
Average % Ejection Fraction [12]: 35.55%
Average % Fractional Shortening [12]: 17.36%
Cardiac Output [12]: 20.90 mL/min
Cardiac Output % Improvement Relative to Vehicle [12]: 34.41%
Stroke Volume [12]: 41.69 µL
Stroke Volume % Improvement Relative to Vehicle [12]: 39.38%
Onset of action (after initiation of treatment, as shown in the examples): ≤ 2 weeks
Adverse effects in healthy hearts (echocardiographic function versus baseline) (sham mice, high dose): no adverse effects
Average % Ejection Fraction [13]: 59.04%
Average % Fractional Shortening [13]: 30.87%
Cardiac Output [13]: 22.09 mL/min
Stroke Volume [13]: 42.25 µL
Average % Ejection Fraction [14]: 62.36%
Average % Fractional Shortening [14]: 33.26%
Cardiac Output [14]: 23.72 mL/min
Stroke Volume [14]: 45.57 µL
Average % Ejection Fraction [15]: 61.08%
Average % Fractional Shortening [15]: 32.32%
Cardiac Output [15]: 22.53 mL/min
Stroke Volume [15]: 44.44 µL
Average % Ejection Fraction [16]: 61.18%
Average % Fractional Shortening [16]: 32.45%
Cardiac Output [16]: 23.63 mL/min
Stroke Volume [16]: 45.97 µL
